Data from PubChem BioAssay AID2060617 (Molecular Pharmacology Branch, DTP, NCI, 2025).
Several values for one entry are separate records, joined by “and”; a condition that tells them apart may be missing. Identical values can stand only once.

Test system: 485368-065-R4-J2-PDC spheroids with HUVEC/MSC, viability
Assay: Anticancer human tumor 485368-065-R4-J2-PDC patient-derived pancreatic carcinoma cell line growth inhibition [CLK]
Conditions: for viability, T/C: stronger effect = lower value
In short: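 Multi-cell-type spheroids combined patient-derived tumor cells with HUVEC endothelial cells and human mesenchymal stem cells. Paired agents were dosed in half-log steps down from about clinical Cmax, or from 10 microM where Cmax was unknown.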

[1] = curve of first compound, second compound 0.0316 µM
[2] = curve of first compound, second compound 0.1 µM
[3] = curve of first compound, second compound 0.316 µM
[4] = curve of first compound, second compound 1 µM
[5] = curve of first compound, second compound 3.16 µM
[6] = curve of first compound, second compound 10 µM
[7] = second compound 0.0316 µM, first compound 0.0316 µM
[8] = second compound 0.0316 µM, first compound 0.1 µM
[9] = second compound 0.0316 µM, first compound 0.316 µM
[10] = second compound 0.0316 µM, first compound 1 µM
[11] = second compound 0.0316 µM, first compound 3.16 µM
[12] = second compound 0.0316 µM, first compound 10 µM
[13] = second compound 0.1 µM, first compound 0.0316 µM
[14] = second compound 0.1 µM, first compound 0.1 µM
[15] = second compound 0.1 µM, first compound 0.316 µM
[16] = second compound 0.1 µM, first compound 1 µM
[17] = second compound 0.1 µM, first compound 3.16 µM
[18] = second compound 0.1 µM, first compound 10 µM
[19] = second compound 0.316 µM, first compound 0.0316 µM
[20] = second compound 0.316 µM, first compound 0.1 µM
[21] = second compound 0.316 µM, first compound 0.316 µM
[22] = second compound 0.316 µM, first compound 1 µM
[23] = second compound 0.316 µM, first compound 3.16 µM
[24] = second compound 0.316 µM, first compound 10 µM
[25] = second compound 1 µM, first compound 0.0316 µM
[26] = second compound 1 µM, first compound 0.1 µM
[27] = second compound 1 µM, first compound 0.316 µM
[28] = second compound 1 µM, first compound 1 µM
[29] = second compound 1 µM, first compound 3.16 µM
[30] = second compound 1 µM, first compound 10 µM
[31] = second compound 3.16 µM, first compound 0.0316 µM
[32] = second compound 3.16 µM, first compound 0.1 µM
[33] = second compound 3.16 µM, first compound 0.316 µM
[34] = second compound 3.16 µM, first compound 1 µM
[35] = second compound 3.16 µM, first compound 3.16 µM
[36] = second compound 3.16 µM, first compound 10 µM
[37] = second compound 10 µM, first compound 0.0316 µM
[38] = second compound 10 µM, first compound 0.1 µM
[39] = second compound 10 µM, first compound 0.316 µM
[40] = second compound 10 µM, first compound 1 µM
[41] = second compound 10 µM, first compound 3.16 µM
[42] = second compound 10 µM, first compound 10 µM
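Further: spheroids exposed to compounds for seven days.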
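Wherever viability, T/C is given: 100% = DMSO vehicle control wells.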

`CC(Nc1ccc2c(c1)OCCn1cc(N3C(=O)OCC3C(F)F)nc1-2)C(N)=O` (configuration not stated) + CNC(=O)c1ccc(Nc2nc(OC3CCCC3)c3c(-c4ccc5nc(C)oc5c4)c[nH]c3n2)c(OC)c1 was tested, and the IC50 [1] was greater than 10 µM, the IC50 [2] was greater than 10 µM and the IC50 [3] was greater than 10 µM. It also gave an IC50 [4] of 2.51 µM, an IC50 [5] of 0.368 µM and an IC50 [6] of 0.4 µM. For the same compound, the viability, T/C [7] was 93.5%, the viability, T/C [8] was 119% and the viability, T/C [9] was 105%. For the same compound, the viability, T/C [10] was 97.2%, the viability, T/C [11] was 90.4% and the viability, T/C [12] was 79.3%. It also gave a viability, T/C [13] of 92.3%, a viability, T/C [14] of 116% and a viability, T/C [15] of 102%. The viability, T/C [16] was 89.8%, the viability, T/C [17] was 75.2% and the viability, T/C [18] was 67.5%. The viability, T/C [19] was 76.8%, the viability, T/C [20] was 82.1% and the viability, T/C [21] was 71.1%. The viability, T/C [22] was 63.8%, the viability, T/C [23] was 63.3% and the viability, T/C [24] was 54.1%. The viability, T/C [25] was 81.8%, the viability, T/C [26] was 64.8% and the viability, T/C [27] was 63.2%. For the same compound, the viability, T/C [28] was 57.8%, the viability, T/C [29] was 47.5% and the viability, T/C [30] was 43.7%. The viability, T/C [31] was 68.2%, the viability, T/C [32] was 59% and the viability, T/C [33] was 50%. For the same compound, the viability, T/C [34] was 45.8%, the viability, T/C [35] was 38.7% and the viability, T/C [36] was 36.6%. The viability, T/C [37] was 61%, the viability, T/C [38] was 56.6% and the viability, T/C [39] was 50.1%. For the same compound, the viability, T/C [40] was 45.5%, the viability, T/C [41] was 41.5% and the viability, T/C [42] was 33.8%.

`Cn1ncnc1[C@H]1c2n[nH]c(=O)c3cc(F)cc(c23)N[C@@H]1c1ccc(F)cc1` was tested, and the viability, T/C (compound 0.000316 µM) was 94.6% and 84.6%, the viability, T/C (compound 0.001 µM) was 88.2% and 97.3% and the viability, T/C (compound 0.00316 µM) was 100% and 92.9%. For the same compound, the viability, T/C (compound 0.01 µM) was 94.7% and 89.8%, the viability, T/C (compound 0.0316 µM) was 94.3% and 105% and the viability, T/C (compound 0.1 µM) was 97.9% and 98.6%. For the same compound, the IC50 (curve of compound) was greater than 0.1 µM.

`COC1C=CCC(C)C(C)S(=O)(=O)NC(=O)c2ccc3c(c2)N(CC2CCC21)CC1(CCCc2cc(Cl)ccc21)CO3` (configuration not stated) was tested, and the viability, T/C (compound 0.0316 µM) was 92.5% and 105%, the viability, T/C (compound 0.1 µM) was 109% and 93.5% and the viability, T/C (compound 0.316 µM) was 101% and 105%. The viability, T/C (compound 1 µM) was 132% and 123%, the viability, T/C (compound 3.16 µM) was 105% and the viability, T/C (compound 10 µM) was 86.1% and 74.7%. The IC50 (curve of compound) was greater than 10 µM.

`CC1(C)CCC(CN2CCN(c3ccc(C(=O)NS(=O)(=O)c4ccc(NCC5CCOCC5)c([N+](=O)[O-])c4)c(Oc4cnc5[nH]ccc5c4)c3)CC2)=C(c2ccc(Cl)cc2)C1` + CN1CCN(c2cc(C(=O)Nc3cc4cc(-c5cnn(C)c5)ccc4cn3)ccn2)CC1 was tested, and the IC50 [1] was 8.03 µM, the IC50 [2] was 7.82 µM and the IC50 [3] was 6.55 µM. The IC50 [4] was less than 0.0316 µM, the IC50 [5] was less than 0.0316 µM and the IC50 [6] was less than 0.0316 µM. The viability, T/C [7] was 102%, the viability, T/C [8] was 112% and the viability, T/C [9] was 114%. For the same compound, the viability, T/C [10] was 111%, the viability, T/C [11] was 122% and the viability, T/C [12] was 35.4%. For the same compound, the viability, T/C [13] was 113%, the viability, T/C [14] was 112% and the viability, T/C [15] was 112%. The viability, T/C [16] was 113%, the viability, T/C [17] was 121% and the viability, T/C [18] was 32.4%. The viability, T/C [19] was 86.8%, the viability, T/C [20] was 97.2% and the viability, T/C [21] was 94.6%. For the same compound, the viability, T/C [22] was 95.3%, the viability, T/C [23] was 104% and the viability, T/C [24] was 23.5%. It also gave a viability, T/C [25] of 2.85%, a viability, T/C [26] of 0.83% and a viability, T/C [27] of 2.34%. The viability, T/C [28] was 1.27%, the viability, T/C [29] was 1.79% and the viability, T/C [30] was 3.68%. It also gave a viability, T/C [31] of 2.29%, a viability, T/C [32] of 1.33% and a viability, T/C [33] of 2.68%. It also gave a viability, T/C [34] of 2.94%, a viability, T/C [35] of 3.79% and a viability, T/C [36] of 3.42%. For the same compound, the viability, T/C [37] was 1.77%, the viability, T/C [38] was 2.36% and the viability, T/C [39] was 4.56%. It also gave a viability, T/C [40] of 5.88%, a viability, T/C [41] of 3.51% and a viability, T/C [42] of 1.68%.

In the case of `Nc1ccn(C2OC(CO)C(O)C2(F)F)c(=O)n1` (configuration not stated), the viability, T/C (compound 0.0316 µM) is reported as 46.4% and 56.8%, the viability, T/C (compound 0.1 µM) is reported as 30.6% and 37.9% and the viability, T/C (compound 0.316 µM) is reported as 29.7% and 32.5%. The viability, T/C (compound 1 µM) was 31.6% and 32.8%, the viability, T/C (compound 3.16 µM) was 31.5% and 31.4% and the viability, T/C (compound 10 µM) was 26.7% and 30.9%. The IC50 (curve of compound) was < 0.0316 µM and 0.0477 µM.

`CC(CO)NC(=O)c1cc(-c2ccc(Cl)cc2)nn(-c2cnn(C)c2)c1=O` (configuration not stated) + CN1CCN(c2cc(C(=O)Nc3cc4cc(-c5cnn(C)c5)ccc4cn3)ccn2)CC1 showed an IC50 [1] greater than 10 µM, an IC50 [2] greater than 10 µM and an IC50 [3] greater than 10 µM. The IC50 [4] was less than 0.0316 µM, the IC50 [5] was less than 0.0316 µM and the IC50 [6] was less than 0.0316 µM. The viability, T/C [7] was 91.7%, the viability, T/C [8] was 106% and the viability, T/C [9] was 99.8%. For the same compound, the viability, T/C [10] was 105%, the viability, T/C [11] was 104% and the viability, T/C [12] was 101%. It also gave a viability, T/C [13] of 114%, a viability, T/C [14] of 116% and a viability, T/C [15] of 108%. For the same compound, the viability, T/C [16] was 116%, the viability, T/C [17] was 105% and the viability, T/C [18] was 99.3%. For the same compound, the viability, T/C [19] was 87.2%, the viability, T/C [20] was 87.9% and the viability, T/C [21] was 91%. It also gave a viability, T/C [22] of 82.5%, a viability, T/C [23] of 78.1% and a viability, T/C [24] of 79.1%. For the same compound, the viability, T/C [25] was 1.07%, the viability, T/C [26] was 2.15% and the viability, T/C [27] was 1.7%. For the same compound, the viability, T/C [28] was 1.69%, the viability, T/C [29] was 1.72% and the viability, T/C [30] was 2.66%. For the same compound, the viability, T/C [31] was 2.09%, the viability, T/C [32] was 1.46% and the viability, T/C [33] was 1.34%. It also gave a viability, T/C [34] of 1.32%, a viability, T/C [35] of 1.45% and a viability, T/C [36] of 3.08%. For the same compound, the viability, T/C [37] was 1.44%, the viability, T/C [38] was 4.18% and the viability, T/C [39] was 1.35%. The viability, T/C [40] was 1.26%, the viability, T/C [41] was 2.31% and the viability, T/C [42] was 1.01%.
